Values quoted from earlier work as cited in patent US11793802B2, “Treatment of acute myeloid leukemia (AML) with venetoclax failure” (Sumitomo Pharma Oncology, Inc., priority 2019, dated 2023).
Each block holds one molecule with its values, some of them ahead of it.

Key:
[1] = system: MCL-1 protein
[2] = system: hematological cancers, including AML; details: patients treated with venetoclax

oral bioavailability: orally bioavailable
Compound: CN1CC[C@H](c2c(OP(=O)(O)O)cc(O)c3c(=O)cc(-c4ccccc4Cl)oc23)[C@H](O)C1 [Formula (I-b)]

Compound: Nc1ncn([C@@H]2O[C@H](CO)[C@@H](O)[C@H]2O)c(=O)n1 [azacitidine]
effect on MCL-1 protein levels in blasts [1]: reduce MCL-1 protein levels

Compound: CC1(C)CCC(CN2CCN(c3ccc(C(=O)NS(=O)(=O)c4ccc(NCC5CCOCC5)c([N+](=O)[O-])c4)c(Oc4cnc5[nH]ccc5c4)c3)CC2)=C(c2ccc(Cl)cc2)C1 [venetoclax]
patients demonstrated complete remission [2]: 8-20%
patients showed no response [2]: 20-30%
patients showed disease progression ([2]; after 18 months): ~50%
